27 molecules from patent US8916593B2, “Alkoxy-substituted 2-aminopyridines as ALK inhibitors” (Pfizer Inc., priority 2010, dated 2014) can be followed below.

The target of one test is T1, cMet enzyme (Homo sapiens, UniProt P08581).
T1 construct: RTC Lot#032006
The test is described as follows: cMet enzymatic activity assay. The settings on record: purified cMet enzyme 7.5 nM, ATP 17 μM (Km). The test is classed as biochemical. The protocol:
cMet Enzymatic Activity Assay
Compounds were added at a final concentration of 2% DMSO in half-log dilutions, starting at 20 μM final concentration. The reactions were initiated by addition of 10 μL of peptide/ATP mix to 10 μL enzyme and 5 μL of compound in 384-well plate. […] Substrate and phosphorylated product were separated with an upstream voltage of −2650 V, a downstream voltage of −500V, and a screen pressure of −1.5 psi. The relative peak heights of substrate and product were measured and ratios were calculated using HTS Well Analyzer Software version 5.2.43 from the manufacturer.

In test [1] the target is T2, human recombinant wild-type ALK kinase domain (amino acids 1093-1411) (Homo sapiens, UniProt Q9UM73).
T2 construct: ALK kinase domain (amino acids 1093-1411); made in house
T2 sequence (Q9UM73 1093-1411): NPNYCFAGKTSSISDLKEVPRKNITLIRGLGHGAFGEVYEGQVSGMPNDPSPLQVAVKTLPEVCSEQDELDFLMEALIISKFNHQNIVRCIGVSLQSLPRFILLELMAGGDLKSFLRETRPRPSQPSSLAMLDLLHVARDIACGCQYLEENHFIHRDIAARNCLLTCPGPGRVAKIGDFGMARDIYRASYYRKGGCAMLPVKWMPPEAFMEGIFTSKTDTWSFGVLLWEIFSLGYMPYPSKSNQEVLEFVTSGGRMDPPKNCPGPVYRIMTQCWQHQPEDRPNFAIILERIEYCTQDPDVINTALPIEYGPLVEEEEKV
The test is described as follows: ALK enzyme assay 2 (microfluidic mobility shift assay).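 Also: kinase reaction run 1 h at room temperature, conversion quantified by electrophoretic separation of fluorescent peptide substrate from phosphorylated product, about 15-20% turnover without inhibitor.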 The class given is biochemical.
Experimental: The reactions were incubated for 1 h at room temperature, stopped by the addition of 0.1 M EDTA, pH 8, and the extent of reactions (˜15-20% conversion with no inhibitor) was determined after electrophoretic separation of the fluorescently labeled peptide substrate and phosphorylated product on an LabChip EZ Reader II (Caliper Life Sciences, Hopkinton, Mass.).

Test [2] has as its target EML4-ALK wt v1 in NIH-3T3 cells (Homo sapiens, UniProt Q9UM73).

Some results are limits rather than exact numbers.

T1 sequence (P08581 25-1390): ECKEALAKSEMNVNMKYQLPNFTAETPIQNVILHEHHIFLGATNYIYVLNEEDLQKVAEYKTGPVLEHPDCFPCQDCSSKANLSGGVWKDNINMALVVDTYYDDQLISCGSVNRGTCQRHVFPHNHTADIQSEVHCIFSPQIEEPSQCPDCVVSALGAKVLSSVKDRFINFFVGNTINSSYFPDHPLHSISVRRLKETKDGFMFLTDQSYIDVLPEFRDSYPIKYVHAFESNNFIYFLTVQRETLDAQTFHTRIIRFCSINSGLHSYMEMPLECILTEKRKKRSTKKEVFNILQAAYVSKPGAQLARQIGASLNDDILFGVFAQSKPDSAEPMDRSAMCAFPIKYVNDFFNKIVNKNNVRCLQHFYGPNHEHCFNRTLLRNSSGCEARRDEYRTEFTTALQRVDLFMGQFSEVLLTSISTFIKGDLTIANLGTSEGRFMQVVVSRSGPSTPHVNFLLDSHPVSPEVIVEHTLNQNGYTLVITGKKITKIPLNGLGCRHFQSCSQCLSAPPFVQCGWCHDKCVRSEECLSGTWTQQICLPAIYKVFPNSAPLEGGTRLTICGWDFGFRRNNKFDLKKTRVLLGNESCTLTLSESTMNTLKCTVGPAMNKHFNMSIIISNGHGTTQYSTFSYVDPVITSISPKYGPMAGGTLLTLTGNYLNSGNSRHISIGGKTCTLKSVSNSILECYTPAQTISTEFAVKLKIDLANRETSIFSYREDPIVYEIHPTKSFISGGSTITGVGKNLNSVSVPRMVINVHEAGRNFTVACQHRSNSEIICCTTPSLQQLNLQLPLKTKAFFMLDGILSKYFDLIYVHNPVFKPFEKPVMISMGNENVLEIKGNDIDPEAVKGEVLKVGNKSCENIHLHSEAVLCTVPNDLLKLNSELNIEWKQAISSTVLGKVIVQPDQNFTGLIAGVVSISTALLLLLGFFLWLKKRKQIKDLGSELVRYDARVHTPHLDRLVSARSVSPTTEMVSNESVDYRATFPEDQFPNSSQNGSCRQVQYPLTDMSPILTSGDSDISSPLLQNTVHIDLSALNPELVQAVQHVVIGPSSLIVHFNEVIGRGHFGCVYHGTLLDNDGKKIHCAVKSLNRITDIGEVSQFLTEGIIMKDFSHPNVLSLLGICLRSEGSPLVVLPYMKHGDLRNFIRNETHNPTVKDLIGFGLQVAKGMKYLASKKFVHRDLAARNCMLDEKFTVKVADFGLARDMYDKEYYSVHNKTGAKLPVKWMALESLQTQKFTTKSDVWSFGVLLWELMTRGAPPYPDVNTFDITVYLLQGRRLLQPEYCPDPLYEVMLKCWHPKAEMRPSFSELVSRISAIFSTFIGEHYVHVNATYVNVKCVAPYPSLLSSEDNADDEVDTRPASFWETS
EML4-ALK wt v1 in NIH-3T3 cells, sequence (Q9UM73 with tags, fused parts or gaps): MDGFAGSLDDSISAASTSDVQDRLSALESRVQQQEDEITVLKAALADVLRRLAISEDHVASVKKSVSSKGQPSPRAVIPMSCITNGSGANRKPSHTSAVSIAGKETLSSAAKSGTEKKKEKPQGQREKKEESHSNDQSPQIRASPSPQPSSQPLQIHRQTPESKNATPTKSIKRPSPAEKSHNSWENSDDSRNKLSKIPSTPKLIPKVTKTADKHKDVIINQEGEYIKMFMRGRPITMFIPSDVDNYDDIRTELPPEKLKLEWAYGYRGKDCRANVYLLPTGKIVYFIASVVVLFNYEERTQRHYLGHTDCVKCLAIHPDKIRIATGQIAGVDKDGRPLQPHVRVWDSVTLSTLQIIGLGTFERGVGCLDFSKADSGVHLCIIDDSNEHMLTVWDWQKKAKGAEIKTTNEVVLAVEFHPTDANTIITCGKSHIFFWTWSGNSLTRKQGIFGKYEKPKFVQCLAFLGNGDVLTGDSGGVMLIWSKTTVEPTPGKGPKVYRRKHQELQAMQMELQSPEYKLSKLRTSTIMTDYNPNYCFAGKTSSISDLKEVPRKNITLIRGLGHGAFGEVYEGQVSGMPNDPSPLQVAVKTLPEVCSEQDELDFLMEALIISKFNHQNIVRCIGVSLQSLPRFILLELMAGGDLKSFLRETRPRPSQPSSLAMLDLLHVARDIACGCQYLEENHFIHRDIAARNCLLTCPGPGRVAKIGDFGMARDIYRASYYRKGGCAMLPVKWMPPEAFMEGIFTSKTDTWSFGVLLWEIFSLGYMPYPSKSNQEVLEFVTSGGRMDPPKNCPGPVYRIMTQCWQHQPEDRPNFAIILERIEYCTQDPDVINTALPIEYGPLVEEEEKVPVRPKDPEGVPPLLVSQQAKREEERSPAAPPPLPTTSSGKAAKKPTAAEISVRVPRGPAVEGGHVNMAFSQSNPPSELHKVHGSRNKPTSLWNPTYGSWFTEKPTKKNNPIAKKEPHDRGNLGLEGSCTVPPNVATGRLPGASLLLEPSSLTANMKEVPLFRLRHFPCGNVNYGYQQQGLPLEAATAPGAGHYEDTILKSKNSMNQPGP

Turning to `C[C@@H](Oc1cc(-c2cnnn2C)cnc1N)c1cc(F)ccc1-n1nccn1` [Example 21, 3-{(1R)-1-[5-fluoro-2-(2H-1,2,3-triazol-2-yl)phenyl]-ethoxy)-5-(1-methyl-1H-1,2,3-triazol-5-yl)pyridin-2-amine], the half-inhibitory concentration (IC50) (commonly the concentration at which inhibition is half-maximal) against cMet enzyme turned out to be 14400 nM. As for `C[C@@H](Oc1cc(-c2ccnn2C)cnc1N)c1cc(F)ccc1-n1nccn1` [Example 30, 3-{(1R)-1-[5-fluoro-2-(2H-1,2,3-triazol-2-yl)phenyl]ethoxy}-5-(1-methyl-1H-pyrazol-5-yl)pyridin-2-amine], on cMet enzyme, the 50% inhibitory concentration (IC50) stood at 6110 nM. Compared with the last molecule, the IC50 is about 2.4-fold lower. In turn, `CC(Oc1cc(-c2ccnn2C)cnc1N)c1cc(F)ccc1-n1nccn1` (stereo not shown) [Example 31, 3-{1-[5-fluoro-2-(2H-1,2,3-triazol-2-yl)phenyl]-ethoxy)-5-(1-methyl-1H-pyrazol-5-yl)pyridin-2-amine] had an IC50 against cMet enzyme of 13000 nM. This IC50 lies about 2.1-fold higher than the previous one.

`Cc1[nH]ncc1-c1cnc(N)c(OC(C)c2cc(F)ccc2F)c1` (stereo not shown) [Example 35, 3-[1-(2,5-difluorophenyl)ethoxy]-5-(5-methyl-1H-pyrazo-4-yl)pyridin-2-amine] gave an IC50 against cMet enzyme of 5610 nM. In turn, `Cc1n[nH]cc1-c1cnc(N)c(OC(C)c2cc(F)ccc2C#N)c1` (stereo not shown) [Example 38, 2-(1-{[2-amino-5-(3-methyl-1H-pyrazol-4-yl)pyridin-3-yl]oxy}ethyl)-4-fluorobenzonitrile] showed an IC50 against cMet enzyme of 4050 nM. In the case of `C[C@@H](Oc1cc(-c2ccc(OC3CCNCC3)nc2)cnc1N)c1cc(F)ccc1-n1nccn1` [Example 122, 5-{(1R)-1-[5-fluoro-2-(2H-1,2,3-triazol-2-yl)phenyl]ethoxy}-6′-(piperidin-4-yloxy)-3,3′-bipyridin-6-amine], the Ki – broadly, a dissociation constant, usually derived from enzyme kinetics or from competition with a known ligand – in test [1] was below 0.2 nM. Moreover, in test [2], the IC50 came to 1.15 nM.

`Cc1nn(C2CCNCC2)cc1-c1cnc(N)c(O[C@H](C)c2cc(F)ccc2-n2nccn2)c1` [Example 124, 3-{(1R)-1-[5-fluoro-2-(2H-1,2,3-triazol-2-yl)phenyl]ethoxy}-5-[3-methyl-1-(piperidin-4-yl)-1H-pyrazol-4-yl]pyridin-2-amine]: in test [1], the Ki was below 0.2 nM. Besides, the IC50 in test [2] turned out to be 2.04 nM. As for `Cc1c(-c2cnc(N)c(O[C@H](C)c3cc(F)ccc3-n3nccn3)c2)cnn1C1CCNCC1` [Example 125, 3-{(1R)-1-[5-fluoro-2-(2H-1,2,3-triazol-2-yl)phenyl]ethoxy}-5-[5-methyl-1-(piperidin-4-yl)-1H-pyrazol-4-yl]pyridin-2-amine], in test [1], the Ki is below 0.2 nM. In addition, in test [2], 3.7 nM corresponded to half-maximal inhibition (IC50). For the molecule `Cc1n[nH]c(C)c1-c1cnc(N)c(O[C@H](C)c2cc(F)ccc2-n2nccn2)c1` [Example 126, 5-(3,5-Dimethyl-1H-pyrazol-4-yl)-3-{(1R)-1-[5-fluoro-2-(2H-1,2,3-triazol-2-yl)phenyl]ethoxy}pyridin-2-amine], in test [1], the Ki is below 0.193 nM. The molecule also displayed an IC50 in test [2] of 12.1 nM. For `Cc1nn([C@H]2CCS(=O)(=O)C2)c(C)c1-c1cnc(N)c(O[C@H](C)c2cc(F)ccc2-n2nccn2)c1` [Example 127, 5-{1-[(3S)-1,1-dioxidotetrahydrothiophen-3-yl]-3,5-dimethyl-1H-pyrazol-4-yl}-3-{(1R)-1-[5-fluoro-2-(2H-1,2,3-triazol-2-yl)phenyl]ethoxy}pyridin-2-amine] the same measures were below 0.2 nM and 2.54 nM. For `C[C@@H](Oc1cc(-c2cnn(C3CCN(C(=O)CN(C)C)CC3)c2)cnc1N)c1cc(F)ccc1-n1nccn1` [Example 128, 1-{4-[4-(6-amino-5-{(1R)-1-[5-fluoro-2-(2H-1,2,3-triazol-2-yl)phenyl]ethoxy}pyridin-3-yl)-1H-pyrazol-1-yl]piperidin-1-yl}-2-(dimethylamino)ethanone], in test [1], the Ki is below 0.2 nM. The same molecule displayed a half-maximal inhibitory concentration (IC50) in test [2] of 9.8 nM. On to `C[C@@H](Oc1cc(-c2ccnc(F)c2F)cnc1N)c1cc(F)ccc1-n1nccn1` [Example 129, 2′,3′-difluoro-5-{(1R)-1-[5-fluoro-2-(2H-1,2,3-triazol-2-yl)phenyl]ethoxy}-3,4′-bipyridin-6-amine], for which the inhibitory constant (Ki) in test [1] worked out at 5.5 nM. Besides, the IC50 in test [2] was determined as 223 nM. For `C[C@@H](Oc1cc(-c2ccnc(N3CC(O)C3)c2F)cnc1N)c1cc(F)ccc1-n1nccn1` [Example 130, 1-(6-amino-3′-fluoro-5-{(1R)-1-[5-fluoro-2-(2H-1,2,3-triazol-2-yl)phenyl]ethoxy}-3,4′-bipyridin-2′-yl)azetidin-3-ol], in test [1], the Ki was found to be 0.26 nM. In test [2], this molecule gave an IC50 of 2.25 nM. With `C[C@@H](Oc1cc(-c2ccnc(N3CCOCC3)c2F)cnc1N)c1cc(F)ccc1-n1nccn1` [Example 131, 3′-fluoro-5-{(1R)-1-[5-fluoro-2-(2H-1,2,3-triazol-2-yl)phenyl]ethoxy}-2′-(morpholin-4-yl)-3,4′-bipyridin-6-amine], the Ki in test [1] worked out at 0.638 nM. Moreover, the half-inhibitory concentration (IC50) in test [2] worked out at 17.6 nM. For `C[C@@H](Oc1cc(-c2ccnc(N3CCN(C)CC3)c2F)cnc1N)c1cc(F)ccc1-n1nccn1` [Example 132, 3′-fluoro-5-{(1R)-1-[5-fluoro-2-(2H-1,2,3-triazol-2-yl)phenyl]ethoxy}-2,-(4-methylpiperazin-1-yl)-3,4′-bipyridin-6-amine], the Ki in test [1] is below 0.2 nM. The IC50 in test [2] is 5.67 nM. As to `COc1ccc(F)cc1C(C)Oc1cc(-c2nsc(S(C)(=O)=O)n2)cnc1N` (stereo not shown) [Example 133, 3-[1-(5-fluoro-2-methoxyphenyl)ethoxy]-5-[5-(methylsulfonyl)-1,2,4-thiadiazol-3-yl]pyridin-2-amine], in test [1], the Ki is 1.28 nM. The molecule also showed an IC50 in test [2] of 687 nM.

As for `CNCc1ccc(-c2cnc(N)c(OC(C)c3cc(F)ccc3OC)c2)cc1S(C)(=O)=O` (stereo not shown) [Example 134, 3-[1-(5-fluoro-2-methoxyphenyl)ethoxy]-5-{4-[(methylamino)methyl]-3-(methylsulfonyl)phenyl}pyridin-2-amine], the Ki in test [1] was determined as 0.12 nM. The molecule further registered an IC50 in test [2] of 9.1 nM.

Regarding `COc1ccc(F)cc1C(C)Oc1cc(-c2ccc(CO)c(S(C)(=O)=O)c2)cnc1N` (stereo not shown) [Example 136, [4-{6-amino-5-[1-(5-fluoro-2-methoxyphenyl)ethoxy]pyridin-3-yl}-2-(methylsulfonyl)phenyl]methanol], the Ki in test [1] was 0.26 nM. The 50% inhibitory concentration (IC50) in test [2] turned out to be 8.6 nM. Consider `COc1ccc(F)cc1C(C)Oc1cc(-c2sc(CO)nc2C)cnc1N` (stereo not shown) [Example 137, (5-{6-amino-5-[1-(5-fluoro-2-methoxyphenyl)ethoxy]pyridin-3-yl}-4-methyl-1,3-thiazol-2-yl)methanol], for which the inhibition constant Ki in test [1] turned out to be 0.398 nM. The IC50 in test [2] is 2.59 nM. In the case of `COc1ccc(F)cc1C(C)Oc1cc(-c2ccc(C(C)N)nc2)cnc1N` (stereo not shown) [Example 138, 6′-(1-aminoethyl)-5-[1-(5-fluoro-2-methoxyphenyl)ethoxy]-3,3′-bipyridin-6-amine], in test [1], the inhibition constant Ki was found to be 0.32 nM. For the same molecule, in test [2], the half-maximal inhibitory concentration (IC50) stood at 8.33 nM. Take `Cc1nn(C2CCNC2=O)cc1-c1cnc(N)c(O[C@H](C)c2cc(F)ccc2-n2nccn2)c1` (stereo partly drawn) [Example 139, 3-[4-(6-amino-5-{(1R)-1-[5-fluoro-2-(2H-1,2,3-triazol-2-yl)phenyl]ethoxy}pyridin-3-yl)-3-methyl-1H-pyrazol-1-yl]pyrrolidin-2-one]: the Ki in test [1] is below 0.2 nM. Besides, inhibition in test [2] was half-maximal at 2.82 nM (IC50). Regarding `C[C@@H](Oc1cc(-c2cn([C@@H]3C[C@H]4CC[C@@H](C3)N4)nc2C#N)cnc1N)c1cc(F)ccc1-n1nccn1` [Example 140, 4-(6-amino-5-{(1R)-1-[5-fluoro-2-(2H-1,2,3-triazol-2-yl)phenyl]ethoxy}pyridin-3-yl)-1-[(3-exo)-8-azabicyclo[3.2.1]oct-3-yl]-1H-pyrazole-3-carbonitrile], the inhibitory constant (Ki) in test [1] was below 0.2 nM. In addition, in test [2], half-maximal inhibition (IC50) required 15.9 nM. For `C[C@@H](Oc1cc(-c2cnn([C@@H]3C[C@H]4CC[C@@H](C3)N4)c2C#N)cnc1N)c1cc(F)ccc1-n1nccn1` [Example 141, 4-(6-amino-5-{(1R)-1-[5-fluoro-2-(2H-1,2,3-triazol-2-yl)phenyl]ethoxy}pyridin-3-yl)-1-[(3-exo)-8-azabicyclo[3.2.1]oct-3-yl]-1H-pyrazole-5-carbonitrile], the Ki in test [1] was below 0.2 nM. In test [2], this molecule had an IC50 of 3.5 nM.

`CNS(=O)(=O)c1cc(-c2cnc(N)c(O[C@H](C)c3cc(F)ccc3-n3nccn3)c2)ccc1OC` [Example 142, 5-(6-amino-5-{(1R)-1-[5-fluoro-2-(2H-1,2,3-triazol-2-yl)phenyl]ethoxy}pyridin-3-yl)-2-methoxy-N-methylbenzenesulfonamide]: the Ki in test [1] is below 0.2 nM. Moreover, inhibition in test [2] was half-maximal at 3.75 nM (IC50).

As to `CNS(=O)(=O)c1ccc(OC)c(-c2cnc(N)c(O[C@H](C)c3cc(F)ccc3-n3nccn3)c2)c1` [Example 143, 3-(6-amino-5-{(1R)-1-[5-fluoro-2-(2H-1,2,3-triazol-2-yl)phenyl]ethoxy}pyridin-3-yl)-4-methoxy-N-methylbenzenesulfonamide], in test [1], the Ki was below 0.2 nM. This molecule also came in with a 50% inhibitory concentration (IC50) in test [2] of 8.98 nM. The corresponding values for `COc1ccc(-c2cnc(N)c(O[C@H](C)c3cc(F)ccc3-n3nccn3)c2)cc1S(N)(=O)=O` [Example 144, 5-(6-amino-5-{(1R)-1-[5-fluoro-2-(2H-1,2,3-triazol-2-yl)phenyl]ethoxy}pyridin-3-yl)-2-methoxybenzenesulfonamide] are below 0.2 nM and 2.45 nM. Take `CCc1nc(CS(C)(=O)=O)sc1-c1cnc(N)c(O[C@H](C)c2cc(F)ccc2-n2nccn2)c1` [Example 145, (R)-5-(4-ethyl-2-((methylsulfonyl)methyl)thiazol-5-yl)-3-(1-(5-fluoro-2-(2H-1,2,3-triazol-2-yl)phenyl)ethoxy)pyridin-2-amine]: the Ki in test [1] was below 0.2 nM. This molecule had an IC50 in test [2] of 10.5 nM.
